{
  "source": "patent US20250120928A1",
  "about": "(University of Maryland, Baltimore, priority 2021, published 2025)",
  "key": {"BMMØs": {"tested_on": "BMMØs", "format": "cell-based", "settings": "0-30 μM", "procedure": "(§1) Three hours later, cells were stimulated with 100 ng/mL LPS. After 48 hours, cells were lifted using Versene and washed with cold PBS supplemented with 1% FBS and 0.4% 0.5 M EDTA (Quality Biological, Gaithersburg, MD). FcR blocking was performed with purified anti-mouse CD16/32 antibody (#101301) (Biolegend, San Diego, CA) prior to staining with Annexin V-FITC and propidium iodide kit (#640914) (BioLegend, San Diego, CA) for apoptosis and cell death. Cell staining was conducted according to BioLegend protocols for flow cytometry. Flow cytometry data were collected using a Becton Dickinson LSR II or Becton Dickinson Canto II flow cytometer. Flow plots and data processing was done using FCS Express 7 Flow Cytometry De Novo Software (De Novo, Glendale, CA).\nas §1, with “After” for “Three hours later, cells were stimulated with 100 ng/mL LPS. After”"}, "[1]": {"tested_on": "LPS-induced endotoxemia mouse model", "test": "Plasma cytokine analysis in the LPS-induced endotoxemia mouse model", "format": "in vivo, male C57BL/6J mice", "settings": "50 mg/kg i.p. 3 hours before 20 mg/kg LPS i.p.; blood 3 hours post-LPS", "procedure": "Terminal cardiac blood draws from the left ventricle occurred 3 hours post LPS injections using a 25 g needle and 1 mL syringe into an EDTA coated lavender blood collection tube (BD Medical, Franklin Lakes, NJ). Blood samples were centrifuged at 1000×g for 10 minutes within 30 minutes of collection. Plasma was extracted and diluted 10,000-fold for ELISA IL-6 measurement and diluted 10-fold for TNFα measurements.\nTerminal cardiac blood draws from the left ventricle occurred 3 hours post LPS injections using a 25 g needle and 1 mL syringe into an EDTA coated lavender blood collection tubes (BD Medical, Franklin Lakes, NJ). Blood samples were centrifuged at 1000×g for 10 minutes within 30 minutes of collection. Plasma was extracted and diluted 10,000-fold for ELISA IL-6 measurement and diluted 10-fold for TNFα measurements. MAGPIX Luminex bead-based multiplex ELISA (Thermo Fisher Scientific, Waltham, MA) of mouse plasma (diluted 100-fold) measured for 26 various cytokines and chemokines and data was analyzed using the Luminex xPONENT software (Millipore) as per manufacturer's instructions. The 26-plex panel include murine IL-1β, IL-2, IL-4, IL-5, IL-6, IL-9, IL-10, IL-12p70, IL-13, IL-17A (CTLA-8), IL-18, IL-22, IL-23, IL-27, GM-CSF, IFNγ, TNFα, MCP-1 (CCL2), MIP-1α (CCL3), MIP-10 (CCL4), RANTES (CCL5), MCP-3 (CCL7), Eotaxin (CCL11), GROα (CXCL1), MIP-2a (CXCL2), and IP-10 (CXCL10)."}, "unstimulated BMMØs": {"tested_on": "unstimulated BMMØs", "test": "MTS assay", "format": "cell-based, C57BL/6J mice", "settings": "Mus musculus; unstimulated BMMØs treated for 48 hours; read-out: IC50 (MTS assay, cellular proliferation)", "procedure": "Cells were then washed with PBS and 50 μL of MTS solution was added to each well and incubated for 1 hour. The optical density (O.D.) of the solution was measured using a SpectraMax iD3 microplate reader at 570 nm. The percentage of cell proliferation was measured as the ratio of O.D. at 570 nm to no treatment control. IC50 values were calculated using GraphPad Prism 9 program based on a sigmoidal dose-response equation."}},
  "data": [
    {"smiles": "O=C(CCCCCCC(=O)Nc1ccc(CO)cc1)NO", "note": "[SAHA-OH, N^1-hydroxy-N^8-(4-(hydroxymethyl)phenyl)octanediamide]", "values": [
      {"measurement": "apoptosis (AV+/PI−) over concentration", "setting": "BMMØs", "value": "apoptosis induction"},
      {"measurement": "viability (AV−/PI−) over concentration", "setting": "BMMØs", "value": "concentration-dependent viability reduction"},
      {"measurement": "reduction of plasma IL-6", "setting": "[1]", "value": "about 50%"},
      {"measurement": "reduction of plasma TNFα", "setting": "[1]", "value": "about 50%"},
      {"measurement": "IC50", "setting": "unstimulated BMMØs", "value": 1.3, "unit": "µM"}
    ]}
  ]
}
